According to a melting point compilation (Tetko et al.; mined from patent text by program, amines drawn as free bases though some values may be those of a salt):

melting point [°C]	SMILES
100 to 105	CN(C(=O)C(Cc1c[nH]c2ccccc12)NC(=O)OC(C)(C)C(Cl)(Cl)Cl)C(Cc1ccccc1)C(N)=O (racemic)
151 to 153	CCc1cc(OCc2ccc(-c3ccccc3C#N)cc2)c2ccccc2n1
254 to 256	COc1ccc(-c2ccc(N3CCCN(c4ccc(-c5ccc(OC)cc5)cn4)CC3)nc2)cc1
111 to 114	CC(C)=CCCOc1c(-c2ccc(S(C)(=O)=O)cc2)cnn(-c2ccc(F)cc2)c1=O
238 to 240	O=[N+]([O-])c1ccc(-c2cc(O)ccc2-c2ncnc(-c3ccccc3)n2)cc1
70 to 72	Cc1ccc(S(=O)(=O)N(CCBr)c2ccc(Cl)cc2[N+](=O)[O-])cc1
250 to 251	O=C1COc2cc(Oc3ccc(O)cc3)ccc2N1
131 to 134	CC(=N)Nc1ccc(NC(C)=O)cc1
151 to 153	N#Cc1ccc(N2CCCN(c3ccnc4sc(C(N)=O)c(N)c34)CC2)cc1
120	COC(=O)c1ccc(OC)c(NC(=N)c2ccc(F)cc2)c1
162 to 164	CCN(C)c1nc(-c2ccncc2)nc2sc(C#N)c(C)c12
62 to 63	CN(CCO)c1nc2ccccc2o1
234 to 236	Cc1c(CC(=O)O)c2ccccc2n1-c1ncnc2ccccc12
34.1 to 34.9	C=C1[C@H](C(=O)OC)[C@H]1C(=O)OC
45 to 48	CC(=Cc1ccccc1)c1ccc2c(c1)SCC(C)(C)CS2
185 to 187	Nc1nnc(-c2ccccc2Nc2cccc(C(F)(F)F)c2)o1
130 to 133	O=C(O)C1CC(=C2CCCN(c3ccccc3)C2=O)c2ccc(Cl)cc2N1 (stereo unspecified)
146 to 150	O=C(O)c1ccccc1Nc1cccc(/C=C/c2nc3ccccc3s2)c1
54 to 57	CC(=O)c1ccc(Sc2cccc(Br)c2)cc1
95 to 96	CON(C)C(=O)Nc1cccc(OC(C)C(N)=S)c1 (stereo unspecified)
89 to 90	CCCC(OCCc1ccc(-c2ccc(Cl)cc2)cc1)C(=O)O (stereo unspecified)
104	COc1ccc(-c2c(OCCN3CCOCC3)c3ccccc3oc2=O)cc1
134 to 135	C#CC(O)(C(Oc1ccc(F)cc1)n1cncn1)C(C)(C)C (stereo unspecified)
108 to 110	Cc1nc2c(NC(=O)C(C)(C)C)c(C(=O)C=Cc3ccccc3)ccn2c1C
168	Cc1ncn(Nc2cccc(Cl)c2)c1-c1cccc(Cl)c1

melting point [°C]	SMILES
175 to 176	CCOc1cc(N(CC)CC)ccc1C(=O)c1nc2ccccc2nc1C(=O)O
130 to 132	CCC1(CCCN2CCc3sccc3C2)C(=O)Nc2ccccc21 (stereo unspecified)
95 to 98	COC(=O)C(=O)Nc1ccc(C(CC2CCCC2)C(=O)Nc2nccs2)cc1 (stereo unspecified)
239 to 241	O=C(NC1CC1)c1c(NC(=O)c2cc(C(F)(F)F)nn2-c2ncccc2Cl)ccc2cc[nH]c12
250 to 253	CC(=O)Oc1c(C)c(C)c2c(nc(COc3ccc(CC4SC(=O)NC4=O)cc3)n2C)c1C (stereo unspecified)
105 to 109	O=C(O)C(Oc1ccc(OCc2ccccc2)cc1)c1ccc(OCCCOc2ccc(Cl)cc2)cc1 (stereo unspecified)
156 to 157	c1ccc(Nc2nsc3nc4ccccc4n23)nc1
105 to 106	COc1cc([N+](=O)[O-])c(C(OC(=O)C(Cl)(Cl)Cl)c2ccccc2)c([N+](=O)[O-])c1OC (stereo unspecified)
118	c1cnc(NC2CCN(C3CCCC3)CC2)nc1
119 to 120	COc1cc(OC)nc(NC(=O)NS(=O)(=O)c2ncccc2C(O)CF)n1 (stereo unspecified)
124 to 125	COc1ccc(Cc2nnc(N[C@H]3CC[C@H](C(C)C)CC3)c3ccccc23)cn1
81 to 82	CS(=O)(=O)NCCN1CCC(CO)CC1
118 to 119	NC(c1ccccc1)c1ccc(OCCCOc2ccc(C(N)c3ccccc3)cc2)cc1 (stereo unspecified)
74 to 76	CCOC(OCC)C(=O)OCc1c(-c2cnccn2)ssc1=O
100	CCOC(=O)[C@@](CC)(CCCNCCc1c[nH]c2ccc(F)cc12)C(OCC)OCC
185 to 186	COC(=O)c1cc(NC=O)ccn1
147 to 149	Brc1ccnc2cc3c(cc12)OCO3
200	ON=Cc1ccc(-c2ccc(O)cc2)c2ccccc12
146 to 147	CC(=O)OC1CSC(Oc2cccc(-c3cccnc3Cl)c2)C(OC(C)=O)C1OC(C)=O (stereo unspecified)
153 to 154	CC(C)=CCc1c(O)n2c3c(nc2n(Cc2ccccc2)c1=O)N(C)CN(C)C3=O
115 to 117	COC1(C)CCc2cc(O)c(C(C)(C)C)cc2O1 (stereo unspecified)
136	Cc1ccc(N2CCN(CCCN3c4cccc5cccc(c45)S3(=O)=O)CC2)cc1
113	CS(=O)(=O)Nc1cc(N2C(=O)C3=C(CCCC3)C2=O)c(F)cc1C#N
169 to 171	CCOC(=O)C1=C(C)N(C(C)=O)C(c2csc(C)n2)=NC1c1ccc(Cl)cc1 (stereo unspecified)
144 to 145	COc1nsc(N2CCN(c3ccccn3)CC2)n1

melting point [°C]	SMILES
142 to 145	COc1ccc(CONC(=O)c2nc(-c3ccc(Cl)c(OC)c3F)cc(N)c2Cl)cc1
222 to 225	CS(=O)(=O)c1ccc(-c2cnn(-c3cccc(-c4ccc(F)cc4)c3)c(=O)c2-c2ccc(F)cc2)cc1
45	CCOC(=O)C(=CN(CC)c1ccc(C=O)s1)C(=O)OCC
232	O=c1cc(-c2nc3ccccc3[nH]2)oc2ccccc12
198 to 200	C[C@]1(COc2ccc(N3CCS(=O)CC3)cc2)Cn2cc([N+](=O)[O-])nc2O1
80 to 81	CCOC(=O)C(=NOC)c1ccccc1CBr
283 to 286	O=C1Nc2ccccc2CN(c2ccccc2)N1
216 to 217	Cc1ccc(Cc2cc3c(cc2/C=C/c2ccc(C(=O)O)cc2)C(C)(C)CCC3(C)C)cc1
74 to 76	OC(CCl)COc1ccc2c(c1)OCC(c1ccccc1)C2 (stereo unspecified)
116 to 117	CC(C)(C)OC(=O)N[C@H](CO)C(=O)OC(c1ccccc1)c1ccccc1
162 to 163	Cc1ccc(C)c(OCc2ccccc2C(=O)O)c1
218 to 221	N#CCC(=O)Nc1ccc(N)c([N+](=O)[O-])c1
90 to 91	CN(C)CCOc1ccc(/C(=C(\c2ccccc2)C(F)(F)F)c2ccccc2)cc1
221 to 223	Cc1cnc2c(Cl)nc3cc4ccccc4cc3n12
40 to 45	OCC(CCc1ccc(Cl)cc1)Cn1cncn1 (stereo unspecified)
114 to 117	O=C(Cn1ccnc1)c1cccc2ccccc12
127 to 128	C/C=C/CNC(=O)N1CC(Oc2cccc(C(F)(F)F)c2)C1
75 to 76	CC(C)CSc1nc2c(cc1C#N)C(=O)CC(C)(C)C2
191 to 195	O=C(Nc1ccc2cc(CN3CCC(CO)CC3)cnc2c1)c1ccc(-c2ccc(F)cc2)cc1
115 to 118	Nc1noc(-c2ccc(C(F)(F)F)cc2)c1Cl
110 to 111	CCCCCCCCC1C=CC(CCc2ccc(C(=O)O)o2)=C2N=C3CCCCC3=C21 (stereo unspecified)
132 to 134	COc1ccccc1NC(=O)Nc1ccc(CC(=O)OC(C)(C)C)cc1OC
253 to 255	NC(=O)CN1CCC(C(=O)N2CCN3C(=O)OC(c4ccccc4)(c4ccccc4)C3C2)CC1 (stereo unspecified)
93 to 94	O=C(OCC1CCCCO1)c1ccccc1Nc1ccnc2cc(Cl)ccc12 (stereo unspecified)
148 to 150	CCN(C)C(=O)c1nn(-c2ccc(Cl)cc2)c(=O)c2c(N)scc12

melting point [°C]	SMILES
92	O=C1c2cc(Cl)ccc2-n2cccc21
167 to 168	CCn1cc(-c2ccc([C@H](C)N3CC[C@](CC(C)(C)O)(c4ccccc4)OC3=O)cc2)ccc1=O
115 to 116	O=C(O)CCCON1CCNC1=Nc1c(Cl)cccc1Cl
173 to 174	Cc1ccccc1[C@@H]1CN(C(=O)C2CCN(C(=O)CO)CC2)CC[C@H]1C(=O)N(C)Cc1cc(C(F)(F)F)cc(C(F)(F)F)c1 (relative stereo)
251 to 252	COc1ccc(-n2c(=O)c(C)nc3cccnc32)cc1
191	Cc1c(C(=O)O)ccc(Cl)c1O
215 to 217	CONC(=O)c1nc(-c2ccc(Cl)c(OC)c2F)cc(N)c1Cl
177 to 179	CS(=O)(=O)c1ccc(-c2cc(=O)n(CC(F)(F)F)nc2-c2ccc(F)cc2)cc1
122	O=C(c1ccn(S(=O)(=O)c2ccccc2)c1)c1ccc(Cl)cc1Cl
49.5 to 50	C=C(CCCCCCCCCCCCCC)C(=O)O
133 to 135	CCOCn1c(Br)c(Br)c(S(=O)(=O)C(F)(F)F)c1-c1ccc(Cl)cc1
151 to 152	CCOC(=O)/C(=N\OCC(=O)N1CCCCC1)c1csc(N)n1
124 to 126	COc1ccc(S(=O)(=O)n2ccc3ccccc32)cc1
198	Cc1cn2c(N)c(Cl)cc(C(=O)NCC3CCN(CC(=O)C(C)(C)C)CC3)c2n1
201 to 204	COc1c(C=Cc2ccc(C=CC3=C(C#N)C(=C(C#N)C#N)OC3(C)C)s2)cc2c3c1CCCN3CCC2
234 to 242	Cc1ccc(NCc2ccc(/C=C/C(=O)O)cc2)cc1Nc1nccc(-c2cccnc2)n1
235 to 236	Cc1cc(Nc2cc(Cl)nc(-c3ccccc3)n2)[nH]n1
44 to 47	CCN(CC)C(=O)n1cnc(S(=O)(=O)Cl)n1
142 to 145	CNC(=O)OCCN1C(=O)c2ccccc2C1=O
102 to 103	O=C(O)CCc1cnoc1-c1ccc(F)c(F)c1
187 to 188	O=C(CSc1n[nH]c(-c2ccccc2)n1)C12CC3CC(CC(C3)C1)C2
195 to 197	CN(c1ncnc2c1ncn2C1OC(CO)C(O)C1O)n1cccc1 (stereo unspecified)
89	O=C(CCCN1CCN(c2ccccn2)CC1)c1cccnc1

SMILES	melting point [°C]
O=C(OCC1CC1)c1ncn2c1[C@@H]1CCN1C(=O)c1cc(F)ccc1-2	171 to 172
C[C@H]1[C@H](O)C2(CC2)C(=O)N1c1ccc(C#N)c(C(F)(F)F)c1	109 to 110
CCc1c2c(nc3ccccc13)-c1cc3c(c(=O)n1C2)COC(=O)CC3(O)CC (stereo unspecified)	> 280
